According to patent US9737525B2, “Small molecule activators of NRF2 pathway” (The General Hospital Corporation, priority 2013, dated 2017):

Tests used:
[1] = system: primary human monocytes; assay: Cytokine production by primary monocytes from HD patients and controls; type: cell-based; parameters: Levels of IL-1, IL-6, IL-8 and TNFα: dose or concentration left out as unconfirmed
Protocol: Blood samples were obtained from control subjects and genetically-diagnosed, symptomatic HD patients. Patients were classed as having early or moderate-stage disease using the total functional capacity (TFC) scale (13-7, early; 6-3, moderate) [Marder, 2000]. Subjects with inflammatory or infective conditions were excluded. Cells were isolated from whole blood, as previously described [Björkqvist, 2008]. In brief, 50 ml whole blood was collected in heparin (CP Pharmaceuticals) and leukocytes were isolated by density gradient centrifugation. Monocytes were sorted via magnetic cell separation columns using anti-CD14 microbeads (Miltenyi Biotec). Monocytes were seeded at 1×10^5 cells per well in 96-well PRIMARIA™ tissue culture plates (BD Falcon) with R10 media (RPMI culture medium supplemented with 10% FCS, 2 mM L-glutamine, 50 U/ml penicillin and […] streptomycin (Invitrogen)). […] Supernatants were analyzed using the human pro-inflammatory II (4-plex) MSD assay measuring IL-1b, IL-6, IL-8 and TNFα. […] Cell death was measured using a LDH assay (CytoTox-Fluor™ Cytotoxicity Assay from Promega). Normalized cytokine levels have been analyzed on the logarithmic scale due to their skewed distribution. […] Contrasts of interest were then calculated using linear combinations of parameter estimates.

[2] = system: primary microglia; assay: IL-6 release from primary microglia of wild type and YAC128 mice (ELISA); type: cell-based, mouse; settings: CSE and INF-γ stimulated wild type and YAC128 microglia
Protocol: Whole brains were obtained from post-natal 1 to 3 day old wild type and YAC128 mouse pups on the FVB/N strain background and placed in Hanks Balanced Salt Solution (HBSS; Invitrogen) on ice. Meninges were removed and the remaining brain tissue was placed into growth medium (DMEM [Invitrogen], 10% FBS [PAA], 1% L-glutamine [Invitrogen], 1% penicillin/streptomycin [Invitrogen]), and homogenized using a 5 ml pipette. Cells of each brain were pelleted, re-suspended in growth medium and transferred into a T150 flask, cultured at 37° C. with 5% CO2. Growth medium was replaced after 24 hr and then every 7 days. After 18 to 21 days in culture, loosely attached microglia were harvested and seeded at 1.4×10^5 cells/ml with pre-incubated conditioned media into 96-well PRIMARIA™ tissue culture plates (BD Falcon). Adherent astrocytes were plated at 1.4×10^5 cells/ml in 10% FBS media for 24 hr in 96-well PRIMARIA™ tissue culture plates. After the initial isolation microglia and astrocytes were seeded at a density of 1.4×10^5 cells/ml into 96-well PRIMARIA™ tissue culture plates. […] Cells were lysed and total protein levels were determined using the microBCA kit (Thermo Scientific). Supernatants were analyzed using mouse IL-6 ELISA (e-Biocience) and IL-6 levels were normalized to total protein levels.

[3] = system: medium spiny neurons (MSNs) expressing mHTTex1; assay: Acutely transfected rat brain slice culture assay; type: cell-based
Protocol: Coronal brain slices (250 μm thick) containing both cortex and striatum were prepared from CD Sprague-Dawley rat pups at postnatal day 10 and placed into interface culture as previously described (Reinhart et al., 2011). A biolistic device (Helios Gene Gun; Bio-Rad) was then used to co-transfect the brain slices with YFP visual reporter and a 90 amino acid mutant huntingtin plasmid containing human htt exon-1 harboring a 73 CAG repeat to induce neurodegeneration of medium spiny neurons (MSNs). mHTTex1 expression induced progressive neurodegeneration of medium spiny neurons (MSNs) compared to controls over a period of 4 days.
MIND4 was added to the culture wells at the time of slice preparation and transfection to a final DMSO concentration of 0.1%; this concentration of DMSO was also added to all control wells. The positive control used for these experiments was the pan-caspase inhibitor Boc-D-FMK at 100 μM (Varna et al., 2007). YFP co-transfected MSNs were identified 4 days after incubation by their location within the striatum and by their characteristic dendritic arborization as previously described (Crittenden et al., 2010; Reinhart et al., 2011). […] Ordinate axis expresses the mean numbers of healthy YFP-positive MSNs per striatal region in each brain slice. […]

| Structure (SMILES) | Levels of IL-1, IL-6, IL-8 and TNFα ([1]; HD patient cells) | IL-1, IL-6, IL-8 and TNFα production ([1]; monocytes from HD patients and normal subjects, LPS and IFN-g stimulation, different doses) | IL-6 secretion [2] | Neuroprotection relative to Boc-D-FMK at 100 μM ([3]; 10 μM) | Protection against mHTTex1-induced neurodegeneration of MSNs ([3]; concentration-dependent, 4 days) |
| --- | --- | --- | --- | --- | --- |
| O=[N+]([O-])c1ccc(Sc2nnc(COc3ccccc3)n2-c2ccccc2)nc1 [MIND4-17] | significant decrease in the levels of all four cytokines | reduced IL-1, IL-6, IL-8, and TNFα production | reduced the amount of IL-6 secreted |  |  |
| O=[N+]([O-])c1ccc(Sc2nnc(COc3ccccc3)n2-c2ccccc2)c2ncccc12 [MIND4, 5-nitro-8-{[5-(phenoxymethyl)-4-phenyl-4H-1,2,4-triazol-3-yl]thio}quinoline] |  |  |  | comparable to the efficacy of a reference compound | significantly protected against mHTTex1-induced neurodegeneration |
